These results are taken from patent publication US6982260B1, “Quinazolines and their use for inhibiting cyclin-dependent kinase enzymes” (Warner-Lambert Company, priority 1999, dated 2006).

Where two headings read alike, the source gives them in different places. Bounds are passed on as bounds.

Data set [1] relates to herpes simplex virus (HSV). To be noted: cited from earlier work.
Another data set concerns neointima formation. To be noted: intraluminal exposure of a denuded rat carotid artery; cited from earlier work.
The next data set has as its target cdk2/A (Homo sapiens, UniProt P24941). In words: cdk2/A kinase assay. Format: biochemical. To be noted: 32P incorporation into retinoblastoma, 25° C., 15 minutes; read-out: Cdk2A IC50. How it is done: (§1) All components except the ATP were added to the wells, and the plate was placed on a plate mixer for 2 minutes. The reaction was begun by addition of [^32P]ATP, and the plate was incubated at 25° C. for 15 minutes. The reaction was terminated by addition of 0.1 mL of 20% TCA. The plate was kept at 4° C. for at least 1 hour to allow the substrate to precipitate. The wells were then washed five times with 0.2 mL of 10% TCA and ^32P incorporation determined with a beta plate counter (Wallac Inc., Gaithersburg, Md.).

The target of the next data set is cdc2/cyclinB (Homo sapiens, UniProt P06493). In words: cdc2/cyclinB kinase assay (Table 1, CdkB). It is filed as biochemical. To be noted: 32P incorporation into retinoblastoma, 25° C., 15 minutes. On the procedure:
as §1

The target of another data set is cdk4/D (Homo sapiens, UniProt P11802). Put plainly: Cyclin-Dependent Kinase 4 (cdk4) Assay. It is filed as biochemical. How it is done: As noted above, the compounds of this invention are potent inhibitors of cyclin-dependent kinases, and accordingly, are useful in treating and preventing neurodegenerative disorders, atherosclerosis, and other cell proliferative disorders like cancer. […] A typical assay, for instance, measures inhibitory activity against the cyclin D dependent kinase 4 enzyme (cdk4/D). […] The cdk4 assay was carried out as follows.
Cyclin-Dependent Kinase 4 (cdk4) Assay
Enzyme assays for IC50 determinations (Table 1 above) and kinetic evaluation were performed in 96 well filter plates (Millipore MADVN6550). The total volume was 0.1 mL containing a final concentration of 20 mM TRIS (tris[hydroxymethyl]aminomethane), at pH 7.4, 50 mM NaCl, 1 mM dithiothreitol, 10 mM MgCl2, 25 μM ATP containing 0.25 μCi of [^32P]ATP, 20 ng of cdk4, 1 μg of retinoblastoma, and appropriate dilutions of a compound of the present invention. All components except the ATP were added to the wells, and the plate was placed on a plate mixer for 2 minutes. The reaction was started by adding [^32P]ATP and the plate was incubated at 25° C. for 15 minutes. The reaction was terminated by addition of 0.1 mL of 20% trichloroacetic acid (TCA). The plate was kept at 4° C. for at least 1 hour to allow the substrate to precipitate. The wells were then washed five times with 0.2 mL of 10% TCA and ^32P incorporation was determined with a beta plate counter (Wallac Inc., Gaithersburg, Md.).

The next data set has as its target cdk2/cyclinE (Homo sapiens, UniProt P24941). In words: cdk2/cyclinE kinase assay. It is filed as biochemical. The conditions noted are these: 32P incorporation into retinoblastoma, 25° C., 15 minutes; read-out: Cdk2E IC50. How it is done:
as §1

The mark [2] stands for this setting: 25 μM ATP, retinoblastoma substrate, 25° C., 15 minutes, read-out: Cdk4 IC50.

Chain of cdc2/cyclinB (P06493 whole entry, species assumed): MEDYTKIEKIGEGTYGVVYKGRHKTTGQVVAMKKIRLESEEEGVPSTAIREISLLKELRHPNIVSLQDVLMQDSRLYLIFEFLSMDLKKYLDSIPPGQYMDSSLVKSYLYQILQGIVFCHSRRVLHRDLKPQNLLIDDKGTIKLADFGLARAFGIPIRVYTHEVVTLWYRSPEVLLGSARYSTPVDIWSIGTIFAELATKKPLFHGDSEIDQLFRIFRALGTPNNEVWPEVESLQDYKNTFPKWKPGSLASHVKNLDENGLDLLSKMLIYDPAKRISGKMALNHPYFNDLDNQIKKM
Chain of cdc2/cyclinB (P14635 whole entry partner, species assumed): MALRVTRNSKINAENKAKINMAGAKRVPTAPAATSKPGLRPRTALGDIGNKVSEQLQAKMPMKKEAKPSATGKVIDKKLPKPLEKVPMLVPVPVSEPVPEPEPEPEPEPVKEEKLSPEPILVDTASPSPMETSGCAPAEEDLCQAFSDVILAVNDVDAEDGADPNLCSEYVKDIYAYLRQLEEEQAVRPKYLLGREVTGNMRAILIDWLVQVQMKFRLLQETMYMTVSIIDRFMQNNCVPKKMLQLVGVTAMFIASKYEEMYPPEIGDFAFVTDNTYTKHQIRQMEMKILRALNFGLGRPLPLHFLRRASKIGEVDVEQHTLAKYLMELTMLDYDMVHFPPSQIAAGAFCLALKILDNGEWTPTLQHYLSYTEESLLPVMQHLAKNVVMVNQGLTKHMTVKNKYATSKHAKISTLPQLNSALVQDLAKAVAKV
Chain of cdk4/D (P11802 whole entry, species assumed): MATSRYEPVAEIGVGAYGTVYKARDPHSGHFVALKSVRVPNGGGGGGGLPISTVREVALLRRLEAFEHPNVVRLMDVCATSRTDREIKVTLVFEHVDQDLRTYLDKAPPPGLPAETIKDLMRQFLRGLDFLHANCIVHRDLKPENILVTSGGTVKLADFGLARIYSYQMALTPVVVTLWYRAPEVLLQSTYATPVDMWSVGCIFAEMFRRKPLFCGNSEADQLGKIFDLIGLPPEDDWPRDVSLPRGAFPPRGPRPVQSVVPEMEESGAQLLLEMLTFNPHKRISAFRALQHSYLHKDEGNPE
Chain of cdk4/D (P24385 whole entry partner, species assumed): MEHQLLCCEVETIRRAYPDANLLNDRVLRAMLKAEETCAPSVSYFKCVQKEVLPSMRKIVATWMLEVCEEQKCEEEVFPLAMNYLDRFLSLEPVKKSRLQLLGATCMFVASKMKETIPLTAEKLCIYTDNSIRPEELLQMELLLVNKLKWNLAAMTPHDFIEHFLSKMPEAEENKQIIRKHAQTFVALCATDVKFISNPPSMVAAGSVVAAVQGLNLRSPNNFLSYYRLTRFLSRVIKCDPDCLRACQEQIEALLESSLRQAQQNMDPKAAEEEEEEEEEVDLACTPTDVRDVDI

Turning to `CC[C@H](CO)Nc1nc(NCc2ccccc2)c2ncn(C(C)C)c2n1` [roscovitine], in data set [1], the HSV replication entry was “inhibited”.
As for `COc1ccc(CNc2nc(N(CCO)CCO)nc3c2ncn3C(C)C)cc1` [CVT-313], the “inhibition of neointima formation” value in the data set with neointima formation is “greater than 80%”.
As for `COc1ccc2cnc(Nc3ccc(N4CCC(NC(=O)OC(C)(C)C)C4)cc3)nc2c1C1CCCC1` (centres unmarked) [Example 45, {1-[4-(8-Cyclopentyl-7-methoxy-quinazolin-2-ylamino)-phenyl]-pyrrolidin-3-yl}-carbamic Acid Tert-butyl Ester], the melting point was 157 °C (dec.). For the same compound, on cdk2/A, the 50% inhibitory concentration (IC50) was 2390 nM. For the same compound, the IC50 at cdc2/cyclinB was > 1700 nM. The half-maximal inhibitory concentration (IC50) at cdk4/D (setting [2]) was 275 nM. Besides, the IC50 on cdk2/cyclinE was found to be 6900 nM.
Consider `COc1ccc2cnc(Nc3ccc(N4CCOCC4)cc3)nc2c1C1CCCC1` [Example 44, (8-Cyclopentyl-7-methoxy-quinazolin-2-yl)-(4-morpholin-4-yl-phenyl)-amine], for which the melting point was 243 to 244 °C. Further, the IC50 at cdk2/A turned out to be 383 nM. Further, the half-inhibitory concentration (IC50) against cdc2/cyclinB was 1590 nM. 18 nM corresponded to half-maximal inhibition on cdk4/D (IC50). Further, at cdk2/cyclinE, the IC50 turned out to be 650 nM.
With `COc1ccc2cnc(Nc3ccc(N4CCOCC4)c(F)c3)nc2c1C1CCCC1` [Example 43, (8-Cyclopentyl-7-methoxy-quinazolin-2-yl)-(3-fluoro-4-morpholin-4-yl-phenyl)-amine], the melting point is 252 to 253 °C. For the same compound, on cdk2/A, the 50% inhibitory concentration (IC50) was found to be 966 nM. Moreover, the half-inhibitory concentration (IC50) at cdc2/cyclinB was > 5000 nM. The IC50 on cdk4/D (setting [2]) stood at 70 nM. The 50% inhibitory concentration (IC50) on cdk2/cyclinE is > 5000 nM.
On to `COc1ccc2cnc(Nc3ccc(N4CCCCC4)cc3)nc2c1C(C)C` [Example 21, (8-Isopropyl-7-methoxy-quinazolin-2-yl)-(4-piperidin-1-yl-phenyl)-amine], for which the melting point fell in the range of 166 to 167 °C. Moreover, the concentration for half-maximal inhibition (IC50) on cdk2/A was 410 nM. Also, the IC50 at cdc2/cyclinB was > 5000 nM. This compound also had an IC50 on cdk4/D of 52 nM. Also, the IC50 at cdk2/cyclinE was determined as 3100 nM.
In the same order, the values of `COc1ccc2cnc(Nc3ccc(N4CCCCC4)cc3)nc2c1C1CCCC1` [Example 23, (8-Cyclopentyl-7-methoxy-quinazolin-2-yl)-(4-piperidin-1-yl-phenyl)-amine] are 212 to 214 °C, 384 nM, > 5000 nM, 11 nM and > 5000 nM.
Compound `COc1ccc2cnc(Nc3ccc(N4CCN(C(=O)CN)CC4)cc3)nc2c1C(C)C` [Example 35, 2-Amino-1-{4-[4-(8-Isopropyl-7-methoxy-quinazolin-2-ylamino)-phenyl]-piperazin-1-yl}-ethanone] gave a melting point of 183 to 185 °C. Moreover, the half-maximal inhibitory concentration (IC50) on cdk2/A amounted to 191 nM. Besides, the IC50 against cdc2/cyclinB was found to be 800 nM. The concentration for half-maximal inhibition (IC50) against cdk4/D came to 10 nM. Moreover, the IC50 at cdk2/cyclinE came out at 1100 nM.
The matching figures for `COc1ccc2cnc(Nc3ccccc3)nc2c1C(C)C` [Example 19, (8-Isopropyl-7-methoxy-quinazolin-2-yl)-phenyl-amine]: 172 to 173 °C, 253 nM, 1040 nM, 125 nM and 1080 nM.
Turning to `COc1ccc2cnc(Nc3ccc(F)c(C)c3)nc2c1C(C)C` [Example 46, (4-Fluoro-3-methyl-phenyl)-(8-isopropyl-7-methoxy-quinazolin-2-yl)-amine], the melting point lay within 169 to 171 °C. Moreover, at cdk2/A, the IC50 came out at 246 nM. The compound further displayed an IC50 against cdc2/cyclinB of 1200 nM. Also, the half-inhibitory concentration (IC50) on cdk4/D (setting [2]) is 1500 nM. In addition, the IC50 at cdk2/cyclinE turned out to be 1200 nM.
`COc1ccc2cnc(Nc3ccc(F)c(C)c3)nc2c1C1CCCC1` [Example 48, (8-Cyclopentyl-7-methoxy-quinazolin-2-yl)-(4-fluoro-3-methyl-phenyl)-amine] had a melting point of 208 to 209 °C. For the same compound, the concentration for half-maximal inhibition (IC50) at cdk2/A was determined as 574 nM. The compound further displayed a half-maximal inhibitory concentration (IC50) on cdc2/cyclinB of 1170 nM. In addition, the half-maximal inhibitory concentration (IC50) on cdk4/D (setting [2]) came to 2400 nM. Besides, the IC50 on cdk2/cyclinE was 2200 nM.
